Experiments:
[1] = target: T1, CDK2/cyclin E (Homo sapiens, UniProt P24941); test: CDK2/Cyclin E kinase assay (GST-Rb phosphorylation, radiolabelled ATP); format: biochemical; settings: bound stated, (±0.05); read-out: IC50 for cdk2/cyclinE;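 further: enzyme was His-tagged CDK2/cyclin E co-expressed in baculovirus-infected Sf9 insect cells and purified over a metal-chelate column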
T1 construct: His; made in house; host or cells: Sf9 insect cells (baculovirus)

[2] = 72-h MTT cellular proliferation assay, Hs27; format: cell-based; settings: human, Hs27 cells (non-transformed); non-transformed cell line Hs27, 72-h MTT; read-out: Cytotoxicity (IC50, μM) Hs27
Procedure: (§1) Selected compounds from the above examples were subjected to a standard cellular proliferation assay using a range of different human tumour cell lines. Standard 72-h MTT (thiazolyl blue; 3-[4,5-dimethylthiazol-2-yl]-2,5-diphenyltetrazolium bromide) assays were performed (Haselsberger, K.; Peterson, D. C.; Thomas, D. G.; Darling, J. L. Anti Cancer Drugs 1996, 7, 331–8; Loveland, B. E.; Johns, T. G.; Mackay, I. R.; Vaillant, F.; Wang, Z. X.; Hertzog, P. J. Biochemistry International 1992, 27, 501–10). Human tumour cell lines were obtained from the ATCC (American Type Culture Collection, 10801 University Boulevard, Manessas, Va. 20110-2209, USA).

[3] = 72-h MTT cellular proliferation assay, IMR90; format: cell-based; settings: human, IMR90 cells (non-transformed); non-transformed cell line IMR90, 72-h MTT; read-out: Cytotoxicity (IC50, μM) IMR90
Procedure: as §1

[4] = 72-h MTT cellular proliferation assay, W138; format: cell-based; settings: human, W138 cells (non-transformed); non-transformed cell line W138, 72-h MTT; read-out: Cytotoxicity (IC50, μM) W138
Procedure: as §1

[5] = system: human tumour cell lines; test: cell-based anti-proliferative assays
From the text: These assays, including methods for their performance, are described in more detail in Example 3. Using such cell line and enzymes assays it may be determined whether a compound is anti-proliferative in the context of the present invention.
as §1

[6] = system: A549; test: 72-h MTT cellular proliferation assay, A549; format: cell-based; settings: human tumour cell line A549, 72-h MTT; read-out: Cytotoxicity (IC50, μM) A549
From the text: (§2) Selected compounds from the above examples were subjected to a standard cellular proliferation assay using a range of different human tumour cell lines.

[7] = system: HeLa; test: 72-h MTT cellular proliferation assay, HeLa; format: cell-based; settings: human tumour cell line HeLa, read-out: Cytotoxicity (IC50, μM) HeLa
From the text: as §2

[8] = system: HT29; test: 72-h MTT cellular proliferation assay, HT29; format: cell-based; settings: HT-29; human tumour cell line HT29, 72-h MTT; read-out: Cytotoxicity (IC50, μM) HT29
From the text: as §2

[9] = system: MCF7; test: 72-h MTT cellular proliferation assay, MCF7; format: cell-based; settings: human tumour cell line MCF7, 72-h MTT; read-out: Cytotoxicity (IC50, μM) MCF7
From the text: as §2

[10] = system: Saos-2; test: 72-h MTT cellular proliferation assay, Saos-2; format: cell-based; settings: human tumour cell line Saos-2, 72-h MTT; read-out: Cytotoxicity (IC50, μM) Saos-2
From the text: as §2

melting point [°C]	Structure (SMILES)	IC50 [1] [µM]	IC50 at 72 h [2] [µM]	IC50 at 72 h [3] [µM]	IC50 at 72 h [4] [µM]	anti-proliferative activity in cell-based assays [5]	IC50 [6] [µM]	IC50 [7] [µM]	IC50 [8] [µM]	IC50 [9] [µM]	IC50 [10] [µM]
–	Cc1[nH]c(C#N)c(C)c1-c1ccnc(Nc2ccc(F)cc2)n1 [Compound 32, 4-[2-(4-Fluoro-phenylamino)-pyrimidin-4-yl]-3,5-dimethyl-1H-pyrrole-2-carbonitrile]	< 0.5	15.1	20.8	9.6	particularly effective anti-proliferative agents	–	–	–	–	–
178.3 to 181.2	Cc1[nH]c(C#N)c(C)c1-c1ccnc(Nc2ccc(I)cc2)n1 [Compound 35, 4-[2-(4-Iodo-phenylamino)-pyrimidin-4-yl]-3,5-dimethyl-1H-pyrrole-2-carbonitrile]	< 0.5	35.1	37.3	21.3	particularly effective anti-proliferative agents	0.51	0.09	0.11	0.45	0.75
